Assay results from patent publication US9526720B2, “Modulators of hepatic lipoprotein metabolism” (The Broad Institute, Inc., priority 2012, dated 2016).

How the values were obtained:
[1] = system: SREBF1; experiment: qPCR SREBF1 transcript level in HepG2 cells; assay type: cell-based, human; set-up: key: A: Increase <2-fold; B: Increase >2-fold; X: Decrease <2-fold; Y: Decrease >2-fold; No significant change
Description: (§1) In the primary screen, HepG2 cells were plated in 384-well plates at 2000 cells per well and incubated for 20 hours with each compound in duplicate at 10 microM concentration. Then RNA was isolated, reverse-transcribed to cDNA, and stored at −80° C. Expression levels of TRIB1 and other target genes, such as SORT1 and PCSK9, were determined by quantitative PCR. Relative gene expression level was normalized to expression of the housekeeping gene, GAPDH. A “hit” was defined as those compounds that caused a greater than 2-fold increase in relative target gene expression when normalized to GAPDH expression, compared to DMSO-treated control. Using these criteria, 130 hits were identified for TRIB1 (0.8% hit rate).
(§2) Further analysis of the expression levels of various proteins in the cholesterol and triglyceride biosynthetic pathways in response to TRIB1 inducer treatment was performed. In particular, transcript levels of additional lipoprotein metabolism pathway proteins SCAP, SREBF1, SREBF2, HMGCR, HMGCS, SCD1, FASN and MTTP were assessed by qPCR, along with TRIB1, LDLR, and PCSK9. The gene expression profile for the same subset of genes was also assessed after treatment with the statin atorvastatin (Lipitor), commonly used in therapy for hypercholesterolemia and other cardiovascular diseases.

[2] = system: PCSK9; experiment: ELISA of secreted PCSK9 protein in HepG2 cells; assay type: cell-based, human; settings: HepG2 cells
Description: (§3) Additional secondary assays were performed in HepG2 cells to further characterize the cellular response to treatment with select confirmed TRIB1 inducer hits. The results of the ELISA, CTG, and qPCR secondary assays are summarized in Table B. For all secondary assays, the experiments were performed using powders of freshly purified compounds.
(§4) To further characterize the relationship of TRIB1 induction and PCSK9 reduction, ELISAs were performed to measure the levels of secreted ApoB, PCSK9, and LDLR. […] As predicted treatment with TRIB1 inducer hits caused a decrease in ApoB levels detected by ELISA. In parallel effort, 3200 BIOA and NATP compounds were screened for PCSK9 expression inhibitors. Hits were defined as inducing greater than 3-fold downregulation of PCSK9, and 3.8% of the screened compounds were confirmed as hits. […] In further experiments, a strong correlation was confirmed between TRIB1 induction and PCSK9 repression in DOS Collection hits. ELISA analysis confirmed that treatment with TRIB1 inducers reduced the PCSK9 protein levels. LDLR protein levels were also analyzed by ELISA to determine whether compounds that modulate both TRIB1 and PCSK9 had any effect on LDLR protein levels.

[3] = system: PCSK9; experiment: qPCR PCSK9 expression in HepG2 cells; assay type: cell-based, human; settings: for fold induction at 10 µM: Homo sapiens, 20 h, HepG2 cells
Description: as §1, §2
(§5) The kinetics of the modulation of TRIB1, LDLR, PCSK9 and MTTP gene expression after treatment by select TRIB1 inducer compounds was monitored by qPCR analysis (FIG. 4). RNA was extracted from cells at various timepoints over 28 hours of treatment (0, 2, 4, 6, 8, 24, 28 hours). Specifically, compounds 12a and 14a induced transcriptional responses over time similar to those produced by berberine, a plant alkaloid used in Chinese medicine. […] Both compound 12a and compound 14a induce TRIB1 and LDLR and repress PCSK9 and MTTP expression with similar kinetics and similar fold change as berberine Importantly, both compounds induce these gene expression changes at much lower concentrations than berberine. […] This increased potency indicates the potential therapeutic efficacy of such compounds for treatment of cardiovascular diseases, particularly hypercholesterolemia and related conditions.

[4] = system: TRIB1; experiment: qPCR TRIB1 expression in HepG2 cells; assay type: cell-based, human; set-up: key to qPCR TRIB1: A: Increase <2-fold; B: Increase >2-fold; X: Decrease <2-fold; Y: Decrease >2-fold; No significant change; settings: for fold induction at 10 µM: Homo sapiens, 20 h
Description: as §1, §2, §5

[5] = system: SCD1; experiment: qPCR SCD1 transcript level in HepG2 cells; assay type: cell-based; settings: Homo sapiens, 20 h
Description: as §1, §2

[6] = system: SREBF2; experiment: qPCR SREBF2 transcript level in HepG2 cells; assay type: cell-based, human; set-up: key: A: Increase <2-fold; B: Increase >2-fold; X: Decrease <2-fold; Y: Decrease >2-fold; No significant change
Description: as §1, §2

[7] = system: HepG2 cells; experiment: Cell Titer Glo (CTG) cell viability assay; assay type: cell-based, human; set-up: key: A: Increase <2-fold; B: Increase >2-fold; X: Decrease <2-fold; Y: Decrease >2-fold; No significant change; settings: cell viability (ATP)
Description: Cell viability was determined using a Cell Titer Glo (CTG) assay ([…]) after treatment with TRIB1 inducer compounds. In this assay, the number of viable cells in culture is based on quantitation of ATP, which indicates metabolically active cells. Addition of the reagent results in cell lysis and generation of a luminescent signal proportional to the amount of ATP present, which is directly proportional to the number of viable, metabolically active cells present in culture. Most TRIB1 inducer compounds had no significant effect on cell viability.

[8] = system: HMGCS; experiment: qPCR HMGCS transcript level in HepG2 cells; assay type: cell-based; settings: Homo sapiens, 20 h
Description: as §1, §2

[9] = system: FASN; experiment: qPCR FASN transcript level in HepG2 cells; assay type: cell-based; settings: Homo sapiens, 20 h
Description: as §1, §2

[10] = system: LDLR; experiment: ELISA of LDLR protein in HepG2 cells; assay type: cell-based, human; set-up: key to ELISA LDLR: A: Increase <2-fold; B: Increase >2-fold; X: Decrease <2-fold; Y: Decrease >2-fold; No significant change; settings: HepG2 cells
Description: as §3, §4

[11] = system: LDLR; experiment: qPCR LDLR expression in HepG2 cells; assay type: cell-based, human; settings: for qPCR LDLR: HepG2 cells
Description: as §1, §2, §5

[12] = system: ApoB; experiment: ELISA of secreted ApoB in HepG2 cells; assay type: cell-based, human; settings: HepG2 cells
Description: as §3, §4

[13] = system: HMGCR; experiment: qPCR HMGCR transcript level in HepG2 cells; assay type: cell-based, human; set-up: key: A: Increase <2-fold; B: Increase >2-fold; X: Decrease <2-fold; Y: Decrease >2-fold; No significant change
Description: as §1, §2

[14] = system: SCAP; experiment: qPCR SCAP transcript level in HepG2 cells; assay type: cell-based, human; set-up: key: A: Increase <2-fold; B: Increase >2-fold; X: Decrease <2-fold; Y: Decrease >2-fold; No significant change
Description: as §1, §2

| SMILES | qPCR SREBF1 [1] | ELISA PCSK9 [2] | fold induction at 10 µM [3] | fold induction at 10 µM ([4]; HepG2 cells) | fold induction at 10 µM [5] | qPCR SREBF2 [6] | CTG [7] | fold induction at 10 µM [8] | fold induction at 10 µM [9] | ELISA LDLR [10] | qPCR LDLR [11] | ELISA ApoB [12] | qPCR HMGCR [13] | qPCR SCAP [14] | increase of PCSK9 mRNA levels ([3]; time course, HepG2) | TRIB1 expression (in words) ([4]; HepG2, qPCR) | qPCR TRIB1 ([4]; HepG2 cells) | increase of LDLR mRNA levels ([11]; time course, HepG2) |
| --- | --- | --- | --- | --- | --- | --- | --- | --- | --- | --- | --- | --- | --- | --- | --- | --- | --- | --- |
| O=C(C[C@H]1C[C@H]2c3cc(NC(=O)c4ccc5c(c4)OCO5)ccc3O[C@H]2[C@H](CO)O1)NCc1ccc(Oc2ccccc2)cc1 [Compound 11a] | Y (Decrease >2-fold) | Y (Decrease >2-fold) | > 2 | > 2 | > 2 | Y (Decrease >2-fold) | Y (Decrease >2-fold) | > 2 | > 2 | B (Increase >2-fold) | B (Increase >2-fold) | Y (Decrease >2-fold) | Y (Decrease >2-fold) | N |  |  |  |  |
| O=C(C[C@@H]1CC[C@@H]2[C@H](COC[C@H](O)CN2CCC(F)(F)F)O1)NCc1ccc(Oc2ccccc2)cc1 [Compound 10a] | N | X (Decrease <2-fold) | > 2 | > 2 | > 2 | N | N | > 2 | < 2 | N | B (Increase >2-fold) | Y (Decrease >2-fold) | Y (Decrease >2-fold) | N |  |  |  |  |
| CC(C)c1c(C(=O)Nc2ccccc2)c(-c2ccccc2)c(-c2ccc(F)cc2)n1CC[C@@H](O)C[C@@H](O)CC(=O)O [Atorvastatin, atorvastatin, reference compound] | N | A (Increase <2-fold) | > 2 |  | < 2 | A (Increase <2-fold) | N | < 2 | < 2 | A (Increase <2-fold) | B (Increase >2-fold) | X (Decrease <2-fold) | N | N | ~2 fold | did not significantly affect | N | ~2 fold |
| CN1C(=O)c2cc(NC(=O)Cc3cccs3)ccc2OC[C@@H]2O[C@H](CC(=O)NCc3ccc(-c4ccccc4)cc3)CC[C@@H]21 [Compound 4a] | X (Decrease <2-fold) | X (Decrease <2-fold) | > 2 | > 2 | < 2 | X (Decrease <2-fold) | N | > 2 | > 2 | A (Increase <2-fold) | A (Increase <2-fold) | Y (Decrease >2-fold) | X (Decrease <2-fold) | X (Decrease <2-fold) |  |  |  |  |
| Cc1cc(C(=O)Nc2ccc3c(c2)C(=O)N(C)[C@H]2CC[C@@H](CC(=O)NCc4ccc(-c5ccccc5)cc4)O[C@@H]2CO3)no1 [Compound 3a] | N | X (Decrease <2-fold) | > 2 | > 2 | > 2 | B (Increase >2-fold) | N | > 2 | > 2 | B (Increase >2-fold) | B (Increase >2-fold) | Y (Decrease >2-fold) | Y (Decrease >2-fold) | N |  |  |  |  |
| O=C(C[C@H]1C[C@H]2c3cc(NS(=O)(=O)c4ccc(F)cc4)ccc3O[C@H]2[C@H](CO)O1)NCc1ccc(Oc2ccccc2)cc1 [Compound 13a] | N | Y (Decrease >2-fold) | > 2 | > 2 | > 2 | N | N | > 2 | < 2 | X (Decrease <2-fold) | B (Increase >2-fold) | Y (Decrease >2-fold) | Y (Decrease >2-fold) | N |  |  |  |  |
